Tests used:
Assay in all cases: relative viability (nuclei count vs DMSO), 5 days (fraction); higher = more cells survive
[1] = compound: CCC1=CN=CN=C1N2CCN(CC2)CC3=NC4=C(N3)C=C(C=C4)C(F)(F)F + Cc1nc(NC(=O)N2CCC[C@H]2C(N)=O)sc1-c1ccnc(C(C)(C)C(F)(F)F)c1 [Alpelisib] (partner 2 µM)
In short: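 Five library-drug doses in √10 steps were combined with a fixed anchor-drug dose, or a single drug was given alone, by pin tool to lung cancer cell lines in 1536-well plates the day after seeding. Nuclei were stained and counted after 5 days. Relative viability is the nuclei count in treated wells over that in vehicle wells, taken as the median of duplicate plates.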

[2] = compound: N=C1NC(=O)/C(=C/c2ccc(O)cc2)S1 [Mirin]
In short: (§1)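 A plate was accepted only when its control CV was below 25% and the cells had doubled at least once. Viability is defined from nuclear counts as treated wells divided by vehicle wells, with the median taken across plates. That median covers lung cancer cell lines grown in 1536-well plates, dosed by pinning at five √10-spaced library-drug concentrations, and counted in MetaXpress from 4× Hoechst images after 5 days.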

[3] = compound: CCC1=CN=CN=C1N2CCN(CC2)CC3=NC4=C(N3)C=C(C=C4)C(F)(F)F
In short: as §1

[4] = compound: CCn1c(-c2nonc2N)nc2cnc(Oc3cccc(NC(=O)c4ccc(OCCN5CCOCC5)cc4)c3)cc21
In short: as §1

| Cell Line | relative viability ([1]; first compound 0.04 µM) | relative viability ([1]; first compound 0.1265 µM) | relative viability ([1]; first compound 0.4 µM) | relative viability ([1]; first compound 1.265 µM) | relative viability ([1]; first compound 4 µM) | relative viability ([2]; 0.25 µM) | relative viability ([2]; 0.7906 µM) | relative viability ([2]; 2.5 µM) | relative viability ([2]; 7.906 µM) | relative viability ([2]; 25 µM) | relative viability ([3]; 0.04 µM) | relative viability ([3]; 0.1265 µM) | relative viability ([3]; 0.4 µM) | relative viability ([3]; 1.265 µM) | relative viability ([3]; 4 µM) | relative viability ([4]; 0.04 µM) | relative viability ([4]; 0.1265 µM) | relative viability ([4]; 0.4 µM) | relative viability ([4]; 1.265 µM) | relative viability ([4]; 4 µM) |
| --- | --- | --- | --- | --- | --- | --- | --- | --- | --- | --- | --- | --- | --- | --- | --- | --- | --- | --- | --- | --- |
| NCI-H2170 | 0.841 | 0.753 | 0.762 | 0.713 | 0.685 | 1.05 | 0.89 | 0.985 | 0.946 | 0.933 | 0.946 | 0.97 | 0.953 | 0.848 | 0.946 | 0.95 | 0.953 | 0.919 | 0.732 | 0.754 |
| HCC-366 | 0.563 | 0.385 | 0.335 | – | 0.395 | 1.03 | 0.868 | 0.982 | 1.03 | 0.947 | 1 | 0.979 | 0.988 | – | 1.05 | 1.01 | 1.03 | 0.836 | 0.0886 | 0.098 |
| NCI-H2405 | 0.858 | 0.768 | 0.651 | – | 0.941 | 0.967 | 0.928 | 0.974 | 0.968 | 0.997 | 0.968 | 0.989 | 0.981 | – | 1.11 | 1.05 | 0.668 | 0.254 | 0.318 | 0.327 |
| COR-L 105 | 1.07 | 0.847 | 0.966 | 0.893 | 0.894 | 1.09 | 1.12 | 1.06 | 1.02 | 0.833 | 0.875 | 0.932 | 0.978 | 0.746 | 0.906 | 0.919 | 0.776 | 0.761 | 0.43 | 0.443 |
| 201T | 1 | 0.988 | 0.995 | 0.902 | 1.06 | 1.03 | 1.03 | 0.974 | 1.05 | 1.02 | 0.98 | 0.956 | 0.97 | 0.869 | 1.05 | 1.06 | 0.961 | 0.811 | 0.778 | 0.834 |
| NCI-H2228 | 0.726 | 0.931 | 0.805 | 0.651 | 0.675 | 1.09 | 0.89 | 0.969 | 0.886 | 1.02 | 1 | 0.858 | 0.99 | 0.928 | 0.98 | 1.26 | 0.964 | 0.908 | 0.919 | 0.881 |
| LC-2-ad | 0.715 | 0.834 | 0.824 | 0.915 | 0.779 | 1.02 | 0.848 | 0.964 | 0.824 | 1.04 | 1 | 0.947 | 0.973 | 0.871 | 0.92 | 1.06 | 0.906 | 0.654 | 0.525 | 0.524 |

From the supplement of paper PMC10307832
